Here are results for three molecules from article PMC6445171 (Journal of Enzyme Inhibition and Medicinal Chemistry, 2017).

Converted amounts (≈) assume the structure as drawn. Where two headings read alike, the source gives them in different places.

The conditions of data set [1]: cited from earlier work.
Data set [2] in a line: physchem. The conditions noted are these: pH 7.4, aqueous buffer.

Usually Solubility stands for how much of the substance goes into solution per volume. For the molecule `CCn1c(=O)c2c(nc(/C=C/c3ccc(OC)c(OC)c3)n2C)n(CC)c1=O` [Istradefylline], the Solubility in data set [1] (reference antagonists) was 1.5 µM (≈ 0.577 µg/mL). Consider `Nc1ccc2oc(-c3ccco3)nc2c1` [Compound D1, 2-(Furan-2-yl)-1,3-benzoxazol-5-amine], for which the Solubility in data set [2] worked out at 28 µM (≈ 5.61 µg/mL). Take `COCCOc1ccc(N2CCN(CCn3ncc4c3nc(N)n3nc(-c5ccco5)nc43)CC2)cc1` [Preladenant]: the Solubility in data set [1] (reference antagonist) is 0.02 µM (≈ 0.0101 µg/mL).
